# From patent US20250367160A1, “USE OF GUAIJAVERIN IN PREPARATION OF EYE PROTECTION PRODUCT” (Innovation Center of Yangtze River Delta, ZJU, priority 2024, published 2025)
# System: ocular apoptotic cells of the zebrafish
# Test: Anti-blue light eye protection efficacy, AO staining of ocular apoptotic cells in zebrafish blue light eye damage model
# Type: in vivo
# Settings: 62.5 μg/mL, aqueous, 28° C., 1 d, n = 10; model group 45833 ± 4825, normal control 12203 ± 1124
# Method: Wild-type AB zebrafish at 1 dpf were randomly selected and irradiated with blue light after membrane rupture to establish the zebrafish blue light eye damage model. Model zebrafish with desirable development status were selected at 3 dpf and randomly distributed in 6-well plates, with 30 zebrafish in each well (experimental group) were treated. Different concentrations of guaijaverin (see Table 2 for concentrations) were administered aqueously, and lutein at a concentration of 62.5 μg/mL were used as a positive control, while a normal control group and a model group were also set up, with a volume of 3 mL per well. After 1 d of treatment at 28° C., the zebrafish in each experimental group were stained with AO in the dark for 30 min and washed 3 times with standard dilution water. 10 zebrafish were randomly selected from each experimental group and photographed under a fluorescence microscope. The data were analyzed and collected using Image J software. The fluorescence intensity of ocular apoptotic cells of the zebrafish was statistically analyzed. The anti-blue light eye protection efficacy of guaijaverin was evaluated based on the statistical analysis results of the above indicators. The statistical result was expressed as mean±SE.
compound,measurement,value
"CC1=C[C@H](O)CC(C)(C)[C@H]1/C=C/C(C)=C/C=C/C(C)=C/C=C/C=C(C)/C=C/C=C(C)/C=C/C1=C(C)C[C@@H](O)CC1(C)C [Lutein, lutein, reference compound]","Fluorescence intensity of ocular apoptotic cells (pixel, mean ± SE)",21751 ± 2993 pixel
